Data taken from the Deep4Chem optical property database.

Experiment: solvent given as SMILES

CC1=C(c2ccc(N(c3ccccc3)c3ccccc3)cc2)C(C)=[N+]2C1=C(c1c(-c3ccccn3)nc3ccccn13)c1c(C)c(-c3ccc(N(c4ccccc4)c4ccccc4)cc3)c(C)n1[B-]2(F)F
absorption maximum (in ClCCl): 568 nm

COc1cc(-c2nc3c4cccnc4c4ncccc4c3[nH]2)c(OC)cc1/C=C/c1ccncc1
absorption maximum (in C1CCOC1): 394 nm | absorption maximum (in CC#N): 392 nm | absorption maximum (in CN(C)C=O): 396 nm | absorption maximum (in Cc1ccccc1): 395 nm

COC(=O)c1c(C(=O)OC)c2ccc(C)nn2c1C
absorption maximum (in C1CCCCC1): 380.4 nm

CSc1nc(-c2ccc(-n3c4ccccc4c4ccccc43)cc2)cc(-c2ccc(-n3c4ccccc4c4ccccc43)cc2)n1
absorption maximum (in C1CCOC1): 363 nm | absorption maximum (in CN(C)C=O): 364 nm | absorption maximum (in Cc1ccccc1): 364 nm | absorption maximum (in ClC(Cl)Cl): 364 nm

Cc1ccc(N(CC(=O)[O-])CC(=O)[O-])cc1OCCOc1cc(-c2cc3ccc(C(=O)[O-])cc3[nH]2)ccc1N(CC(=O)[O-])CC(=O)[O-]
absorption maximum (in O): 349 nm

COc1ccc(C2=[N+]3C(=Nc4c(-c5ccccc5-c5ccc(C(C)(C)C)cc5)cc(-c5ccc(OC)cc5)n4[B-]3(F)F)c3c2c2cc(C(C)(C)C)ccc2c2ccccc32)cc1
absorption maximum (in Cc1ccccc1): 701 nm

F[B-]1(F)OC(c2ccc3ccccc3c2)=CC(c2ccc3ccccc3c2)=[O+]1
absorption maximum (in CC#N): 419 nm | absorption maximum (in ClC(Cl)(Cl)Cl): 412 nm

CC1(C)c2ccccc2N(c2ccc3c(c2)c2cc(N4c5ccccc5C(C)(C)c5ccccc54)cc4c5ccccc5n3c42)c2ccccc21
absorption maximum (in C1CCOC1): 367 nm

CCCCCCCCCCCCC(CCCCCCCCCC)Cn1c2cc(/C=C/C=C/c3nc4ccccc4s3)c3cccc4c5cccc6c(/C=C/C=C/c7nc8ccccc8s7)cc1c(c65)c2c34 (configuration not stated)
absorption maximum (in C1CCCCC1): 530 nm | absorption maximum (in CC#N): 528 nm | absorption maximum (in Cc1ccccc1): 538 nm | absorption maximum (in ClCCl): 538 nm

CCOC(=O)c1sc2nc(C)c(CC)c(C#N)c2c1N
absorption maximum (in c1ccccc1): 412 nm

N#Cc1cc(N2c3ccccc3Sc3ccccc32)c(N2c3ccccc3Sc3ccccc32)cc1C#N
absorption maximum (in c1ccc2c(c1)c1ccccc1n2-c1ccc(-c2ccc(-n3c4ccccc4c4ccccc43)cc2)cc1): 551 nm

COc1ccc2c(c1)c(C#N)cc1c(OC)c(OC)c3cc(C#N)c4cc(OC)ccc4c3c12
absorption maximum (in ClC(Cl)Cl): 471 nm

COc1cc(/C=C/c2ccccc2)cc(OC)c1
absorption maximum (in CC#N): 306 nm

CCCCCCc1ccc(-n2c3[n+](c4c5ccccc5c5ccccc5c42)[B-](C)(C)c2ccc4ccccc4c2-3)cc1
absorption maximum (in C1CCOC1): 392 nm | absorption maximum (in CC#N): 385 nm | absorption maximum (in Cc1ccccc1): 393 nm | absorption maximum (in ClCCl): 390 nm

CCC1(CC)c2cc(Br)ccc2-c2c1c1c(c3c2C(CC)(CC)c2cc(-c4cccs4)ccc2-3)C(CC)(CC)c2cc(-c3cccs3)ccc2-1
absorption maximum (in C1CCOC1): 338 nm

CCCCCCCCN1c2ccccc2Sc2cc(/C=C/c3ccc(N(c4ccc(/C=C/c5ccc6c(c5)Sc5ccccc5N6CCCCCCCC)cc4)c4ccc(/C=C/c5ccc(/C=C/c6ccc(N(c7ccc(/C=C/c8ccc(N(c9ccccc9)c9ccccc9)cc8)cc7)c7ccc(/C=C/c8ccc(N(c9ccccc9)c9ccccc9)cc8)cc7)cc6)c6nsnc56)cc4)cc3)ccc21
absorption maximum (in C1CCOC1): 534 nm | absorption maximum (in CCOC(C)=O): 524 nm | absorption maximum (in CN(C)C=O): 528 nm | absorption maximum (in Cc1ccccc1): 533 nm | absorption maximum (in ClC(Cl)Cl): 534 nm | absorption maximum (in ClCCl): 533 nm

C/C(=C\c1ccc(Cl)cc1)c1nc2ccccc2s1
absorption maximum (in C1CCCCC1): 320 nm | absorption maximum (in CO): 320 nm

CN1CCc2cc(C3=Cc4cccc[n+]4[B-](F)(F)O3)ccc21
absorption maximum (in ClC(Cl)Cl): 430 nm

OC1(c2ccc(-c3cccs3)s2)CCCCC1
absorption maximum (in C1CCOC1): 312 nm | absorption maximum (in CC#N): 309 nm | absorption maximum (in CCCCCC): 308 nm | absorption maximum (in CCO): 309 nm | absorption maximum (in OCCOCCO): 317 nm | absorption maximum (in c1ccncc1): 315 nm

Cc1cc(C)c2nc3c(=O)n(C)c(=O)nc-3n(C)c2c1
absorption maximum (in CC#N): 446 nm

CN(C)c1ccc(C#Cc2ccccc2)cc1
absorption maximum (in C1CCCCC1): 316.9 nm | absorption maximum (in C1CCOC1): 328.8 nm | absorption maximum (in C1COCCO1): 326.61 nm | absorption maximum (in CC1CCCO1): 327.1 nm | absorption maximum (in CC(C)=O): 329.4 nm | absorption maximum (in CC(C)CC(C)(C)C): 315 nm | absorption maximum (in CC(C)O): 321.4 nm | absorption maximum (in CCCCCCCCCCCCCCCC): 316.9 nm | absorption maximum (in CCCCCCCCCCCCCCCCCl): 330 nm | absorption maximum (in CO): 324 nm | absorption maximum (in Cc1ccccc1): 326.3 nm

CN1C(=CC2=C([S-])C(=CC3=[N+](C)c4ccccc4C3(C)C)C2=O)C(C)(C)c2ccccc21
absorption maximum (in ClC(Cl)Cl): 650 nm

COC1=[N+]2C(=C(c3ccc(C)cc3)c3ccc(OC)n3[B-]2(F)F)C=C1
absorption maximum (in C1CCCCC1): 513 nm | absorption maximum (in C1CCOC1): 514 nm | absorption maximum (in CC#N): 510 nm | absorption maximum (in CCOC(C)=O): 512 nm | absorption maximum (in CO): 510 nm | absorption maximum (in Cc1ccccc1): 517 nm | absorption maximum (in ClC(Cl)Cl): 516 nm

FC(F)(F)c1ccccc1B1c2ccccc2N(c2ccccc2)c2ccccc21
absorption maximum (in ClCCl): 389 nm

N#Cc1c(N2CCCCC2)cc(-c2ccccc2)c2c1-c1ccccc1C2=O
absorption maximum (in C1CCOC1): 392 nm

CC/[NH+]=c1\cc2oc3cc(NCCC(=O)NC(CCC(=O)OC)C(=O)OC)c4ccccc4c3nc-2cc1C (configuration not stated)
absorption maximum (in CCO): 600 nm | absorption maximum (in O): 600 nm

c1ccc(-c2nc(-c3ccccc3)nc(-c3ccc(-n4c5ccccc5c5cc6c(cc54)c4ccccc4n6-c4ccccc4)cc3)n2)cc1
absorption maximum (in Cc1ccccc1): 403 nm

COc1nc(Nc2cc3ccc4cccc5ccc(c2)c3c45)nc(OC)n1
absorption maximum (in CC#N): 336 nm | absorption maximum (in CCCCOCCCC): 336 nm | absorption maximum (in CO): 334 nm

c1ccc(N(c2ccccc2)c2ccc(-c3cnc(-c4ccncc4)s3)cc2)cc1
absorption maximum (in CO): 403 nm

Cc1cc2oc3ccccc3c2c2[nH]c3ccccc3c12
absorption maximum (in ClCCl): 337 nm

O=C(O)COc1cccc(OCC(=O)O)c1-c1c2ccc(=[N+]3CCCCC3)cc-2oc2cc(N3CCCCC3)ccc12
absorption maximum (in CCO): 557 nm | absorption maximum (in O): 567 nm

COC(=O)C(NC(=O)OC(C)(C)C)c1ccc2oc(-c3ccc(F)cc3)nc2c1 (configuration not stated)
absorption maximum (in CC1CCCCC1): 317 nm | absorption maximum (in CC#N): 314 nm | absorption maximum (in CO): 302 nm

CCN(CC)c1ccc2cc(-c3cc(SC)c(C#N)c(=O)o3)c(=O)oc2c1
absorption maximum (in C1CCOC1): 512 nm | absorption maximum (in CC#N): 514 nm | absorption maximum (in CC(C)=O): 514 nm | absorption maximum (in CCOC(C)=O): 509 nm | absorption maximum (in CN(C)C=O): 521 nm | absorption maximum (in CO): 514 nm | absorption maximum (in CS(C)=O): 527 nm | absorption maximum (in Cc1ccccc1): 509 nm | absorption maximum (in ClC(Cl)Cl): 517 nm | absorption maximum (in ClCCl): 520 nm

Cc1cc(-c2cccc3ccccc23)cc(C)[o+]1
absorption maximum (in ClCCl): 438 nm

CC(C)(C)c1ccc2c(c1)c1cc(C(C)(C)C)ccc1n2-c1ccc(C(=C(C#N)C#N)c2ccc(-n3c4ccc(C(C)(C)C)cc4c4cc(C(C)(C)C)ccc43)cc2)cc1
absorption maximum (in Cc1ccccc1): 438 nm

Cc1cc(-c2nc(-c3ccccc3)nc(-c3ccccc3)n2)ccc1N1c2ccccc2[Si](c2ccccc2)(c2ccccc2)c2ccccc21
absorption maximum (in Cc1ccccc1): 379.03 nm

CN1C(=CC2=C([O-])C(=Cc3oc4ccccc4[n+]3C)C2=C(C#N)C#N)Sc2ccccc21
absorption maximum (in ClC(Cl)Cl): 664 nm
